Experiments:
Assay in all cases: Kinase profiling in a biochemical assay panel (mobility shift assays and ELISA), %-inhibition at 1 μM; selectivity entropy
[1] = target: panel of more than 300 wild-type and mutant kinases (313 kinase panel) (Homo sapiens, UniProt Q8N568)
[2] = target: T1, panel of more than 300 wild-type and mutant kinases (313 kinase panel) (Homo sapiens, UniProt Q9UF33)
T1 sequence (Q9UF33 23-1036): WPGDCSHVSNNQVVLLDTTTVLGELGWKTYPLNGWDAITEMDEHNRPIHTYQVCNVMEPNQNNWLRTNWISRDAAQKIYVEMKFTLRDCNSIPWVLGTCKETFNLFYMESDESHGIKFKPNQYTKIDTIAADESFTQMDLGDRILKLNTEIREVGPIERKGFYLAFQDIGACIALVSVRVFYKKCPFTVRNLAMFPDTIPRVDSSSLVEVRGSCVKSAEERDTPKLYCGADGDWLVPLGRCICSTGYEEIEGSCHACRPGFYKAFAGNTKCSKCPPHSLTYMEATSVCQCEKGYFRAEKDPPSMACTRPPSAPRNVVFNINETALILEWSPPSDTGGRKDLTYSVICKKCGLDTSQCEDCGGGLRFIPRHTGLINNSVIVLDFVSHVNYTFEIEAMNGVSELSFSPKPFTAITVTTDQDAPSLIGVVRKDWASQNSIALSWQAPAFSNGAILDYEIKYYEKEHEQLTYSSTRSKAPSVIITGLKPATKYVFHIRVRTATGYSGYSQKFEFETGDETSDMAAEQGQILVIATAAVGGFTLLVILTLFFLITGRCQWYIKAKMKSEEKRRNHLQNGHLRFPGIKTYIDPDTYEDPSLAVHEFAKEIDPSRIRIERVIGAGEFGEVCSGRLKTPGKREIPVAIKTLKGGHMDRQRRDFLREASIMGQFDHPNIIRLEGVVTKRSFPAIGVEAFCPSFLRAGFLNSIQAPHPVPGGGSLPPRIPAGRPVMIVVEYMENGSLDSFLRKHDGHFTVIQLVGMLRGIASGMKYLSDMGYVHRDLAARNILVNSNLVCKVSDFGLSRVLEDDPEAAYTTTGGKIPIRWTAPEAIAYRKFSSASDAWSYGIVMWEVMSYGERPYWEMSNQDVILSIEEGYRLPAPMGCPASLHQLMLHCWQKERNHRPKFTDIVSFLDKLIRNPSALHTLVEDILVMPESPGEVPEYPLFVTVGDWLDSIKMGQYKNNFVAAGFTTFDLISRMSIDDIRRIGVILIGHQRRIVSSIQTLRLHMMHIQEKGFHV

[3] = target: T2, panel of more than 300 wild-type and mutant kinases (313 kinase panel) (Homo sapiens, UniProt P51817)
T2 sequence (P51817 1-358): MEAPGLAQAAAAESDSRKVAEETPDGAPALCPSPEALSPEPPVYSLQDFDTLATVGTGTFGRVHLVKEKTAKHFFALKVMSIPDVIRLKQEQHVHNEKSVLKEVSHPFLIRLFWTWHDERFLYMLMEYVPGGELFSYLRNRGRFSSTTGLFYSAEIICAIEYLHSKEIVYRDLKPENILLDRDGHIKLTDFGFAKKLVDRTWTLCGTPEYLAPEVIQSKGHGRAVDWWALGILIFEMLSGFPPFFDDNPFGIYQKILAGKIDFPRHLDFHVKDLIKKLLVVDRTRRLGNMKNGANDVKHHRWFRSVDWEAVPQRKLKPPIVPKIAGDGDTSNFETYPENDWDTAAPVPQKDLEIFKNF

[4] = target: panel of more than 300 wild-type and mutant kinases (313 kinase panel) (Homo sapiens, UniProt Q02779)
panel of more than 300 wild-type and mutant kinases (313 kinase panel) (Homo sapiens, UniProt Q02779), sequence (Q02779 whole entry, change not shown): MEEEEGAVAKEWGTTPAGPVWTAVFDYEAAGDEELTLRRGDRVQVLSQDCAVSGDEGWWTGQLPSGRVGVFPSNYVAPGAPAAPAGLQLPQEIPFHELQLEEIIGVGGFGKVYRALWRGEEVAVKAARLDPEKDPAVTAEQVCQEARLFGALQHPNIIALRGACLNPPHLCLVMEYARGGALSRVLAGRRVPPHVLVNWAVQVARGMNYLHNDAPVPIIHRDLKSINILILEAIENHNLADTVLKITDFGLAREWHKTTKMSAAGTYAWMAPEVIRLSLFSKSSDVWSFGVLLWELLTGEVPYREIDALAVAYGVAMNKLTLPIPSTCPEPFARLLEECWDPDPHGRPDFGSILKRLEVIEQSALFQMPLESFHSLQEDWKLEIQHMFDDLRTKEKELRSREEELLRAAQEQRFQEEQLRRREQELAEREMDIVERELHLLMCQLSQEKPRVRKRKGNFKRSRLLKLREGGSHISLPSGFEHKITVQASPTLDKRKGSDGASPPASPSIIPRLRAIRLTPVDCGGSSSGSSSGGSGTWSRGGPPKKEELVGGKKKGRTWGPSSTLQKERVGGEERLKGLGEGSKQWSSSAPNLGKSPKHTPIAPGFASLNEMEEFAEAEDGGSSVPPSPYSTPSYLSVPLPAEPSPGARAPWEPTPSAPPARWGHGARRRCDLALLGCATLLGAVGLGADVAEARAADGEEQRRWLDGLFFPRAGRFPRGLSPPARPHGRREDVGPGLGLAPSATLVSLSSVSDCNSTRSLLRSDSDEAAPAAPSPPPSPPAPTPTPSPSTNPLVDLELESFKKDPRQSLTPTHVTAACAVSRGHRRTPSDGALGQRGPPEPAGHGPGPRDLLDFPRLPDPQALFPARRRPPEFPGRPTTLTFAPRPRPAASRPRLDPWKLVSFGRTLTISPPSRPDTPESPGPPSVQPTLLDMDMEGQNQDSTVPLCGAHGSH

[5] = target: T3, panel of more than 300 wild-type and mutant kinases (313 kinase panel) (Homo sapiens, UniProt Q8IWQ3)
T3 sequence (Q8IWQ3 1-736): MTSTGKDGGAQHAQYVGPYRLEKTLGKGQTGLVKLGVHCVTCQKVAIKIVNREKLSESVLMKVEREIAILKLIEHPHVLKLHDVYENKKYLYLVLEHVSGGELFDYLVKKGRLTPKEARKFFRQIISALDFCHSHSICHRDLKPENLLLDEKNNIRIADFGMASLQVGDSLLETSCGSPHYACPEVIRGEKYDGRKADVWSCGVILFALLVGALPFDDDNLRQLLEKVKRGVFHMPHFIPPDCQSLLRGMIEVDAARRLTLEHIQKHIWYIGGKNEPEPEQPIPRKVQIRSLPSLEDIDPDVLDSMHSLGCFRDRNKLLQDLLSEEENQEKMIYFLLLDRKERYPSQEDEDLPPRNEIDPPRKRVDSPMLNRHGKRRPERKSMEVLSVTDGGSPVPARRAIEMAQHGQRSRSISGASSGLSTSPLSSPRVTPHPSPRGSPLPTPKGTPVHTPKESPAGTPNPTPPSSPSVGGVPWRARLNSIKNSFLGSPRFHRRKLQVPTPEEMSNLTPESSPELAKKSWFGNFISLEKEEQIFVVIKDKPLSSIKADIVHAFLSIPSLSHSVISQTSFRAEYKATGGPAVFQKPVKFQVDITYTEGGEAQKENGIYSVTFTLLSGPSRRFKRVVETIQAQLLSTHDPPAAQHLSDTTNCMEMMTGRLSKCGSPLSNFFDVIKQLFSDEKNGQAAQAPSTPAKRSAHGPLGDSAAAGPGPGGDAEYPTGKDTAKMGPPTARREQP

[6] = target: panel of more than 300 wild-type and mutant kinases (313 kinase panel) (Homo sapiens, UniProt P49841)
[7] = target: panel of more than 300 wild-type and mutant kinases (313 kinase panel) (Homo sapiens, UniProt Q16288)
[8] = target: panel of more than 300 wild-type and mutant kinases (313 kinase panel) (Homo sapiens, UniProt P11309)
[9] = kinase DCAMKL2, compound at 1 μM

Compound | %-inhibition of DCAMKL2 [1, 9] [%] | %-inhibition of EPHA6 ([2]; kinase EPHA6, compound at 1 μM) [%] | %-inhibition of PRKX ([3]; kinase PRKX, 1 μM) [%] | %-inhibition of MLK2 ([4]; kinase MLK2, 1 μM) [%] | %-inhibition, BRSK2 ([5]; kinase BRSK2, 1 μM compound) [%] | %-inhibition of GSK3β ([6]; kinase GSK3β, compound at 1 μM) [%] | %-inhibition of TRKC ([7]; kinase TRKC, 1 μM) [%] | %-inhibition of PIM1 ([8]; kinase PIM1, 1 μM) [%] | %-inhibition of DCAMKL2 ([1]; 1 µM) [%] | %-inhibition of GSK3β ([6]; 1 µM) [%] | %-inhibition of EPHA6 ([2]; 1 µM) [%] | %-inhibition of TRKC ([7]; 1 µM) [%] | %-inhibition of PRKX ([3]; 1 µM) [%] | %-inhibition of MLK2 ([4]; 1 µM) [%] | %-inhibition of PIM1 ([8]; 1 µM) [%] | %-inhibition, BRSK2 ([5]; 1 µM) [%]
COc1cc(Nc2c(C#N)cnc3cc(OCCCN4CCN(C)CC4)c(OC)cc23)c(Cl)cc1Cl [bosutinib] | -2.32 | 102 | -4.31 | 58 | -12 | – | – | – | – | – | – | – | – | – | – | –
COc1cc2nccc(Oc3ccc(NC(=O)C4(C(=O)Nc5ccc(F)cc5)CC4)cc3)c2cc1OC [cabozantinib] | -2.62 | 100 | -2.42 | 6.67 | 5.62 | -3.51 | 98 | -10 | – | – | – | – | – | – | – | –
C[C@@H](Oc1cc(-c2cnn(C3CCNCC3)c2)cnc1N)c1c(Cl)ccc(F)c1Cl [crizotinib] | 49 | 100 | -7 | 4.7 | 8 | -2.11 | – | -7 | – | – | – | – | – | – | – | –
CC(C)(C)c1nc(-c2cccc(NS(=O)(=O)c3c(F)cccc3F)c2F)c(-c2ccnc(N)n2)s1 [dabrafenib] | 19 | 88 | -1.55 | 47 | 30 | – | 81 | – | – | – | – | – | – | – | – | –
Cc1nc(Nc2ncc(C(=O)Nc3c(C)cccc3Cl)s2)cc(N2CCN(CCO)CC2)n1 [dasatinib] | 2 | – | – | – | – | – | – | – | – | – | – | – | – | – | – | –
C#Cc1cccc(Nc2ncnc3cc(OCCOC)c(OCCOC)cc23)c1 [erlotinib] | – | – | – | – | – | – | – | – | 5 | -4.63 | 69 | 13 | 2 | -1.75 | 6 | 3.75
CO[C@H]1C[C@@H]2CC[C@@H](C)[C@@](O)(O2)C(=O)C(=O)N2CCCC[C@H]2C(=O)O[C@H]([C@H](C)C[C@@H]2CC[C@@H](OCCO)[C@H](OC)C2)CC(=O)[C@H](C)/C=C(\C)[C@@H](O)[C@@H](OC)C(=O)[C@H](C)C[C@H](C)/C=C/C=C/C=C/1C [everolimus] | -5.64 | 2.18 | -4.49 | 4 | -0.919 | -6 | -5 | -9 | – | – | – | – | – | – | – | –
O=S(=O)(c1cccc2cnccc12)N1CCCNCC1 [fasudil] | -2 | 6 | 86 | -10 | 6 | -8 | -5.34 | 3 | – | – | – | – | – | – | – | –
CS(=O)(=O)CCNCc1ccc(-c2ccc3ncnc(Nc4ccc(OCc5cccc(F)c5)c(Cl)c4)c3c2)o1 [lapatinib] | 7 | 20 | 0.493 | 1.78 | 3.58 | -10 | 4 | 0.601 | – | – | – | – | – | – | – | –
Cc1cn(-c2cc(NC(=O)c3ccc(C)c(Nc4nccc(-c5cccnc5)n4)c3)cc(C(F)(F)F)c2)cn1 [nilotinib] | -17 | 30 | 6 | -1.7 | -0.27 | 10 | – | 8 | – | – | – | – | – | – | – | –
Cc1ccc(Nc2nccc(N(C)c3ccc4c(C)n(C)nc4c3)n2)cc1S(N)(=O)=O [pazopanib] | -2.72 | 24 | -1.14 | 18 | -2.18 | – | 21 | -1.49 | – | – | – | – | – | – | – | –
Cc1ccc(C(=O)Nc2ccc(CN3CCN(C)CC3)c(C(F)(F)F)c2)cc1C#Cc1cnc2cccnn12 [ponatinib] | -3.72 | 103 | 26 | 39 | -11 | – | 103 | – | – | – | – | – | – | – | – | –
CNC(=O)c1cc(Oc2ccc(NC(=O)Nc3ccc(Cl)c(C(F)(F)F)c3)c(F)c2)ccn1 [regorafenib] | -6 | 103 | -5.52 | 0.795 | -15 | 11 | 93 | -9 | – | – | – | – | – | – | – | –
N#CC[C@H](C1CCCC1)n1cc(-c2ncnc3[nH]ccc23)cn1 [ruxolitinib] | – | -1.06 | 16 | 22 | -12 | 10 | – | -8 | 64 | – | – | – | – | – | – | –
COc1cc2c(Nc3ccc(Br)cc3F)ncnc2cc1OCC1CCN(C)CC1 [vandetanib] | -5 | – | -5.69 | 12 | -10 | -3.71 | 15 | -9 | – | – | – | – | – | – | – | –

From article PMC3961306, “Comparison of the Cancer Gene Targeting and Biochemical Selectivities of All Targeted Kinase Inhibitors Approved for Clinical Use” (PLoS ONE, 2014)
